{"source": "patent US20240269170A1", "about": "“Treatment of Inflammatory Conditions or Diseases” (Queen Mary University of London, priority 2021, published 2024)", "test_system": "G6PI peptide induced arthritis in DBA/1 mice", "test": "G6PI peptide induced arthritis, MCTR3 treatment", "assay_type": "in vivo, mouse", "method": "(A-D) K/B×N serum (100 μL via intraperitoneal injection, i.p.) was administered to C57BL/6 mice on days 0, 2 and 8 to initiate and prolong inflammatory arthritis. Mice were treated 1 μg/mouse MCTR3 or vehicle (PBS+0.1% EtOH) on day 10, 12 and 14 via intravenous (i.v.) injection. Disease course was assessed by evaluating A) clinical scores and B) paw oedema daily. Results are mean±SEM, n=9 mice per group. Statistical differences were evaluated using a Two-Way ANOVA. Arrows denote days when MCTR3 was administered. (C,D) paws were harvested on day 25, and cells liberated from the joints and the expression of phenotypic markers was evaluated on joint macrophages using flow cytometry and PLS-DA. (C) scores plot with highlighted regions denoting the clusters representing cells from each group and (D) VIP scores for each of the markers evaluated. Each dot in the score plot represents a separate mouse. (E-H) Arthritis was induced in DBA/1 mice by administration of 10 μg G6PI in CFA on Day 0. On day 24, 26 and 28 (denoted in blue arrows), mice were administered 1 μg/mouse MCTR3 or vehicle (PBS+0.1% EtOH) i.v. and (E) clinical scores and (F) paw oedema were measured. Results are mean±SEM, n=mice 7 per group from 2 separate experiments. Statistical differences were evaluated using a Two-Way ANOVA. (G-H) paws were harvested on day 36, and cells liberated from the joints and the expression of phenotypic markers was evaluated on joint macrophages using flow cytometry and PLS-DA. (G) scores plot with highlighted regions denoting the clusters representing cells from each group and (H) VIP scores for each of the markers evaluated. Each dot in the score plot represents a separate mouse.\nFIG. 10: MCTR3 promotes bone and cartilage repair in arthritic mice. G6PI peptide (10 μg/mouse) in CFA was administered to DBA/1 mice ([…]) and mice were treated with either vehicle (PBS+0.1% EtOH) or 1 μg/mouse MCTR3 i.v. on day 24, 26 and 28. On day 36, hind paws were harvested for histological analysis. A) Representative images from knee joints from a vehicle and MCTR3 treated mouse stained with Safranin-O and B) quantitative analysis of Safranin O staining. Results are mean±SEM n=5 mice per group. C-D) microCT analysis was performed in vivo on day 24 and 35, to evaluate bone erosion in the arthritic knees. […] Results are mean±SEM and expressed as percent change from values obtained on day 24 for each mouse. n=4 mice per group. Statistical differences were evaluated using a Mann-Whitney U test.\nWe next assessed whether the protective activities of MCTR3 were retained in a model of adaptive immune system driven arthritis, using the glucose-6-phosphate isomerase peptide driven model of inflammatory arthritis (Schubert et al., 2004, J Immunol 172, 4503-4509). Here, administration of MCTR3 during the course of arthritic inflammation also led to a reduction in joint inflammation as measured by a reduction in both clinical scores and joint oedema (FIG. 1E,F). […] This shift in phenotype was linked with an upregulation of three phenotypic markers, including Arg-1 and CD11b, in cells obtained from joints of MCTR3 treated mice (FIG. 1H).\nSince one of the main debilitating features of arthritis is bone erosion, we next determined whether the joint protective actions of MCTR3 also extended to the bone. For this purpose, we used microCT analysis to investigate bone volume in arthritic joints, comparing bone volumes on day 24, prior to MCTR3 treatment, to those at day 35. […] We next queried whether these bone protective activities of\nG6PI peptide induced arthritis: Antigen DBA/1 mice were immunised with a G6PI emulsion (120 μL/mouse), prepared by sonication of 10 μg G6PI peptide (Sequence: IWYINCFGCETHAML; Cambridge Peptides Ltd.) in 50 μL complete Freund's adjuvant (CFA) and 50 μL DPBS^−/− per mouse (Schubert et al., 2004, J Immunol 172, 4503-4509), via intradermal injection at the base of the tail to initiate inflammatory arthritis. […]", "key": {"[1]": {"conditions": "1 μg/mouse i.v. on day 24, 26 and 28"}, "[2]": {"conditions": "1 μg/mouse i.v., day 36, flow cytometry"}}, "data": [{"smiles": "CC/C=C\\C/C=C\\C[C@H](O)[C@@H](/C=C/C=C/C=C\\C/C=C\\CCC(=O)O)SC[C@H](N)C(=O)O", "note": "[MCTR3, 13R-cysteinyl, 14S-hydroxy-4Z, 7Z, 9E, 11E, 13R, 14S, 16Z, 19Z-docosahexaenoic acid]", "values": [{"measurement": "clinical scores", "setting": "[1]", "result": "reduction"}, {"measurement": "joint oedema", "setting": "[1]", "result": "reduction"}, {"measurement": "safranin O-staining in joints (glycosaminoglycan content)", "setting": "1 μg/mouse i.v. on day 24, 26 and 28, day 36", "result": "significantly higher"}, {"measurement": "bone volume in arthritic knees (microCT)", "setting": "1 μg/mouse i.v., day 35 compared with day 24", "result": "increased"}, {"measurement": "Arg-1 in joint macrophages", "setting": "[2]", "result": "upregulation"}, {"measurement": "CD11b in joint macrophages", "setting": "[2]", "result": "upregulation"}]}]}
